Experimental data from patent US4740233A, “Substituted 1,2,4-triazolo[1,5-a]-pyrimidine-2-sulfonamides and compositions and methods of controlling undesired vegetation and suppressing the nitrification of ammonium nitrogen in soil” (The Dow Chemical Company, priority 1986, dated 1988).

How the values were obtained:
pigweed = assay: Postemergent control of plant species; assay type: in vivo, Amaranthus spp.; conditions: Amaranthus retroflexus, post-emergence, 336 h, read-out: percent postemergent control
Method in brief: (§1)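 Compounds in acetone mixed 1:1 with water containing 0.1% surfactant, sprayed postemergence on greenhouse plants at the 2-4 leaf stage. Growth reduction versus untreated plants of the same species scored after about two weeks.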

crabgrass = assay: Postemergent control of plant species; assay type: in vivo, Digitaria spp.; conditions: Digitaria sanguinalis, post-emergence, 336 h, read-out: percent postemergent control
Method in brief: as §1

sorghum = assay: Postemergent control of plant species; assay type: in vivo, Sorghum vulgare; conditions: Sorghum, post-emergence, 336 h, read-out: percent postemergent control
Method in brief: as §1

rice = assay: Postemergent control of plant species; assay type: in vivo, Oryza sativa; conditions: Oryza sativa, post-emergence, 336 h, read-out: percent postemergent control
Method in brief: as §1

yellow foxtail = assay: Postemergent control of plant species; assay type: in vivo, Setaria lutescens; conditions: Setaria, post-emergence, 336 h, read-out: percent postemergent control
Method in brief: as §1

velvetleaf = assay: Postemergent control of plant species; assay type: in vivo, Abutilon theophrasti; conditions: Abutilon theophrasti, post-emergence, 336 h, read-out: percent postemergent control
Method in brief: as §1

annual morning glory = assay: Postemergent control of plant species; assay type: in vivo, Ipomoea spp.; conditions: Ipomoea, post-emergence, 336 h, read-out: percent postemergent control
Method in brief: as §1

[1] = system: nitrification of ammonium nitrogen; assay: Suppression of nitrification of ammonium nitrogen in soil; conditions: 27° C.
Method in brief: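 Soil (20 g) moistened to its 1/3 bar tension value, mixed with test chemical and incubated sealed for two weeks at 27° C. Nitrate extracted with ammonium sulfate solution and measured by nitrate-specific ion electrode; value given as % NH4-N remaining.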

rape = assay: Postemergent control of plant species; assay type: in vivo, Brassica napus; conditions: Brassica napus, post-emergence, 336 h, read-out: percent postemergent control
Method in brief: as §1

jimsonweed = assay: Postemergent control of plant species; assay type: in vivo, Datura stramonium; conditions: Datura stramonium, post-emergence, 336 h, read-out: percent postemergent control
Method in brief: as §1

yellow nutsedge = assay: Postemergent control of plant species; assay type: in vivo, Cyperus esculentus; conditions: Cyperus, post-emergence, 336 h, read-out: percent postemergent control
Method in brief: as §1

wheat = assay: Postemergent control of plant species; assay type: in vivo, Triticum aestivum; conditions: Triticum aestivum, post-emergence, 336 h, read-out: percent postemergent control
Method in brief: as §1

wild oats = assay: Postemergent control of plant species; assay type: in vivo, Avena fatua; conditions: Avena fatua, post-emergence, 336 h, read-out: percent postemergent control
Method in brief: as §1

cocklebur = assay: Postemergent control of plant species; assay type: in vivo, Xanthium spp.; conditions: Xanthium strumarium, post-emergence, 336 h, read-out: percent postemergent control
Description: In representative operations, each compound to be utilized in a series of tests is dissolved in acetone to one-half of the final volume (twice the final concentration) to be used and the acetone solution in each case is admixed with an equal volume of water containing 0.1 percent by weight of surface active material. The compositions, generally in the nature of an emulsion, were employed to spray separate respective plant species which had been grown to a 2-4 leaf stage in soil of good nutrient content in a greenhouse. The various beds were positioned side by side and exposed to substantially identical conditions of temperature and light. Each bed was maintained so as to prevent any interaction with test compounds in different seed beds. Other plants were left untreated to serve as controls. After treatment, the plants were maintained for about two weeks under greenhouse conditions conducive for good plant growth and watered as necessary. Control refers to the reduction in growth compared to the observed results of the same untreated species.

sugar beet = assay: Postemergent control of plant species; assay type: in vivo, Beta saccharifera; conditions: Beta vulgaris, post-emergence, 336 h, read-out: percent postemergent control
Method in brief: as §1

barnyardgrass = assay: Postemergent control of plant species; assay type: in vivo, Echinochloa crusgalli; conditions: Echinochloa crus-galli, post-emergence, 336 h, read-out: percent postemergent control
Method in brief: as §1

soybean = assay: Postemergent control of plant species; assay type: in vivo, Glycine max.; conditions: Glycine max, post-emergence, 336 h, read-out: percent postemergent control
Method in brief: as §1

johnson grass = assay: Postemergent control of plant species; assay type: in vivo, Sorghum halepense; conditions: Sorghum halepense, post-emergence, 336 h, read-out: percent postemergent control
Method in brief: as §1

corn = assay: Postemergent control of plant species; assay type: in vivo, Zea mays; conditions: Zea mays, post-emergence, 336 h, read-out: percent postemergent control
Method in brief: as §1

cotton = assay: Postemergent control of plant species; assay type: in vivo, Gossypium spp.; conditions: Gossypium hirsutum, post-emergence, 336 h, read-out: percent postemergent control
Method in brief: as §1

| Structure (SMILES) | pest or weed control at 500 ppm (pigweed) [%] | pest or weed control at 500 ppm (crabgrass) [%] | plant injury at 500 ppm (sorghum) [%] | plant injury at 500 ppm (rice) [%] | pest or weed control at 500 ppm (yellow foxtail) [%] | pest or weed control at 500 ppm (velvetleaf) [%] | pest or weed control at 500 ppm (annual morning glory) [%] | % NH4-N Remaining After 2 Weeks Incubation ([1]; 1 ppm) [%] | plant injury at 500 ppm (rape) [%] | pest or weed control at 500 ppm (jimsonweed) [%] | pest or weed control at 500 ppm (yellow nutsedge) [%] | plant injury at 500 ppm (wheat) [%] | pest or weed control at 500 ppm (wild oats) [%] | pest or weed control at 500 ppm (cocklebur) [%] | plant injury at 500 ppm (sugar beet) [%] | pest or weed control at 500 ppm (barnyardgrass) [%] | plant injury at 500 ppm (soybean) [%] | pest or weed control at 500 ppm (johnson grass) [%] | plant injury at 500 ppm (corn) [%] | plant injury at 500 ppm (cotton) [%] | other results |
| --- | --- | --- | --- | --- | --- | --- | --- | --- | --- | --- | --- | --- | --- | --- | --- | --- | --- | --- | --- | --- | --- |
| O=S(=O)(Nc1ccccc1C(F)(F)F)c1nc2ncccn2n1 [Compound 136] | 90 | 0 | 0 | 0 | 0 | 70 | 40 | 67 | 80 | 30 | 0 | 0 | 0 | 98 | 80 | 0 | 30 | 0 | 0 | 30 | % NH4-N Remaining After 2 Weeks Incubation ([1]; 0.01 ppm): 0%; % NH4-N Remaining After 2 Weeks Incubation ([1]; 0.1 ppm): 10%; % NH4-N Remaining After 2 Weeks Incubation ([1]; 10 ppm): 98% |
| CCOc1cnc2nc(S(=O)(=O)Nc3ccccc3C(F)(F)F)nn2c1 [Compound 201] | 90 | 0 | 0 | 0 | 0 | 60 | 0 | 56 | 20 | 70 | 0 | 0 | 0 | 80 | 50 | 0 | 0 | 0 | 0 | 0 | % NH4-N Remaining After 2 Weeks Incubation ([1]; 0.06 ppm): 0%; % NH4-N Remaining After 2 Weeks Incubation ([1]; 0.25 ppm): 11%; % NH4-N Remaining After 2 Weeks Incubation ([1]; 4 ppm): 67% |
| O=S(=O)(Nc1c(F)cccc1F)c1nc2ncc(Cl)cn2n1 [Compound 117, 6-chloro-N-(2,6-difluorophenyl)-1,2,4-triazolo[1,5-a]pyrimidine-2-sulfonamide] | 75 | 0 | 60 | 0 | 65 | 100 | 80 | 41 | 100 | 100 | 25 | 0 | 0 | 100 | 100 | 0 | 35 | 75 | 0 | 90 | % NH4-N Remaining After 2 Weeks Incubation ([1]; 0.06 ppm): 32%; % NH4-N Remaining After 2 Weeks Incubation ([1]; 0.25 ppm): 24%; % NH4-N Remaining After 2 Weeks Incubation ([1]; 4 ppm): 72% |
| COC(=O)c1nn(C)c(C)c1NS(=O)(=O)c1nc2nc(C)cc(C)n2n1 [Compound 250] | 40 | 0 | 0 | 0 | 0 | 70 | 25 |  | 70 | 50 | 0 | 0 | 0 | 50 | 30 | 0 | 50 | 0 | 0 | 0 |  |
| Cc1cc(C)n2nc(S(=O)(=O)Nc3c(Cl)ccc4ccccc34)nc2n1 [Compound 243] | 80 | 0 | 75 | 45 | 75 | 90 | 80 |  | 100 | 95 | 95 | 20 | 0 | 100 | 95 | 70 | 85 | 80 | 75 | 80 |  |
| Cc1cc(C)n2nc(S(=O)(=O)Nc3c(C)nn(C)c3C(F)(F)F)nc2n1 [Compound 247] | 70 | 0 | 0 | 0 | 0 | 40 | 0 | 58 | 70 | 20 | 0 | 0 | 0 | 20 | 70 | 0 | 70 | 0 | 0 | 0 | % NH4-N Remaining After 2 Weeks Incubation ([1]; 0.06 ppm): 58%; % NH4-N Remaining After 2 Weeks Incubation ([1]; 0.25 ppm): 47%; % NH4-N Remaining After 2 Weeks Incubation ([1]; 4 ppm): 82% |
| Cc1cc(C)n2nc(S(=O)(=O)Nc3c(C)ccc(Cl)c3Cl)nc2n1 [Compound 74] | 70 | 0 | 80 | 0 | 60 | 100 | 80 |  | 100 | 90 | 95 | 0 | 0 | 100 | 100 | 70 | 80 | 50 | 0 | 70 |  |
| Cc1ccn2nc(S(=O)(=O)Nc3c(Cl)ccc4ccccc34)nc2n1 [Compound 244] | 100 | 40 | 90 | 40 | 95 | 100 | 90 |  | 100 | 100 | 90 | 20 | 0 | 100 | 100 | 40 | 45 | 80 | 40 | 100 |  |
